Values of other authors as cited in patent US20010000228A1, “Use of a modified baculovirus containing exogenous nucleic acid for the manufacture of a medicament for delivering said nucleic acid to the hepatocytes” (IMPERIAL COLLEGE INNOVATIONS LIMITED, priority 1997, published 2001).

System: HBV
Settings: therapy against HBV

Interferon α
cases in which therapy is effective: around 30%
